Test results from patent US20230372307A1, “COMBINATION THERAPY USING BAX ACTIVATOR AGENT” (Albert Einstein College of Medicine, priority 2020, published 2023).
Read-outs that look alike come from different tables or passages of the source.

Tests used:
[1] = molecular target: BCL-2 (Homo sapiens, UniProt P10415); conditions: cited from earlier work
[2] = molecular target: BCL-XL (Homo sapiens, UniProt Q07817); conditions: cited from earlier work
[3] = molecular target: T1, BCL-w (Homo sapiens, UniProt Q92843); conditions: cited from earlier work
T1 sequence (Q92843 1-193): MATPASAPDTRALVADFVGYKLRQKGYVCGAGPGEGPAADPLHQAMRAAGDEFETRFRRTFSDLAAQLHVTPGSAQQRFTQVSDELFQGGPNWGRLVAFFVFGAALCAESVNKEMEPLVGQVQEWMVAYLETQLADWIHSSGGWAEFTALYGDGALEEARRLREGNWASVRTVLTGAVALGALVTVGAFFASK

[4] = test system: SU-DHL5; test: Cell viability assay (CellTiter-Glo) in SU-DHL5; format: cell-based; conditions: Homo sapiens
Method: (§1) CELL VIABILITY ASSAY. […] Cell viability was assayed at 72 hrs by addition of CellTiter-Glo Assay reagents according to the manufacturer's protocol (Promega), and luminescence measured using a F200 PRO microplate reader (TECAN). […] Excluding high-throughput drug screenings, viability assays were performed in at least triplicate and the data normalized to 1% vehicle-treated control wells. IC50 values were determined by nonlinear regression analysis using Prism software (Graphpad). Dilutions of compounds was performed using a TECAN D300e Digital Dispenser from 10 mM stocks. The BLISS calculation was determined using the Combenefit program as previously described by Di Veroli et al., Bioinformatics.

[5] = molecular target: T2, BAX (Homo sapiens, UniProt Q07812); test: BIM SAHB-BAX competition fluorescence polarization assay (FPA); format: binding; conditions: FITC-BIM SAHBA2 50 nM, BAX 500 nM
T2 construct: serial dilutions of full-length BAX; made in house; host or cells: Escherichia coli
Method: PRODUCTION OF RECOMBINANT BAX PROTEIN. […] BAX wild type was purified by size-exclusion chromatography in a buffer containing 20 mM HEPES pH 7.2, 150 mM KC1, 1 mM DTT. Superdex 75 10/300 GL and 200 10/300 GL (GE Healthcare) columns were used.
FLUORESCENCE POLARIZATION BINDING As SAYS. […] Firstly, direct binding isotherms were generated by incubating FITC-BIM SAHBA2 (50 nM) with serial dilutions of full-length BAX and fluorescence polarization was measured at 20 min on a F200 PRO microplate reader (TECAN). Subsequently, in competition assays, a serial dilution of small-molecule or acetylated BIM SAHBA2 (Ac-BIM SAHB) was combined with FITC-BIM SAHBA2 (50 nM), followed by the addition of recombinant protein at EC75 concentration, as determined by the direct binding assay (BAX: 500 nM). EC50 and IC50 values were calculated by nonlinear regression analysis of competitive binding curves using Graphpad Prism software.

[6] = Pharmacokinetic analysis of BTSA1.2 in mice; format: in vivo; conditions: for AUC(0-inf): read-out: AUCinf_obs; for MRT inf: read-out: MRTINF_obs
Method: […] […]. ICR (CD-1) male mice were fasted at least 3 hrs and water was available ad libitum before the study. Animals were housed in a controlled environment, target conditions: temperature 18-29° C., relative humidity 30 to 70%. Temperature and relative humidity were monitored daily. […] Experiments performed at […] joint Biopharmacy Laboratory.

[7] = test system: leukemia and lymphoma cell lines; test: cells; conditions: Homo sapiens, 72 h, read-out: mean cell viability IC50
Method: as §1

[8] = test system: solid tumor cell lines; test: Cell viability, solid tumor cell lines of the 46-line panel; format: cell-based; conditions: Homo sapiens, read-out: mean cell viability IC50
Method: as §1

[9] = BTSA1.2 and Navitoclax combination in vivo toxicity study; design: species or system CD1-IGS mice; conditions: 200 mg/kg BTSA1.2, 100 mg/kg Navitoclax, oral daily for 7 days
Text: 6-8 weeks old CD1-IGS male mice were purchased from Charles River. […] Mice were monitored daily; body weight and peripheral blood counts were monitored at the indicated days.

[10] = test system: SW480 xenograft; test: SW480 tumor xenograft efficacy and pharmacodynamic study; format: in vivo, nu/nu nude mice; conditions: 200 mg/kg BTSA1.2, 100 mg/kg Navitoclax, oral daily
Text: TUMOR XENOGRAFT STUDIES. 6-8 weeks old nu/nu nude male mice were purchased from Charles River. […] For efficacy the efficacy study, treatments started once tumors reached a volume of ˜200 mm^3. […] Body weight of mice were monitored during treatment. For the pharmacodynamic study, treatments started once tumors reached a volume of ˜400 mm^3, after 3 days of daily treatment mice were euthanized and tumors were collected for analysis. Ex-Vivo BHS PROFILING. SW480 xenograft vehicle and combination treated tumors, and COLO-1 and COLO-2 PDX tumors were analyzed by BH3 profiling under basal conditions. Single cells from tumors were isolated by mechanically pass them through a […] strainer filter with cold PBS. SW480 xenograft tumors: […] PDX tumors: […] Single cell suspensions were prepared in 1:1 JC-1-MEB buffer, as previously described, and were kept at room temperature for 10 min to allow for cell permeabilization and dye equilibration. After adding the cells to the 384-well plate, 2.0×10^4 cells/well, fluorescence was measured at 590 nm emission 545 nm excitation using the M1000 microplate reader (TECAN) at 30° C. every 15 min for a total of 2 hrs.

[11] = test system: COLO-1 PDX; test: COLO-1 patient-derived xenograft efficacy study; format: in vivo, NOD SCID mice; conditions: 200 mg/kg BTSA1.2, 50 mg/kg Navitoclax, oral daily up to 18 days
Text: 6-8 weeks old NOD SCID male mice were purchased from Charles River. […] PDX characterization: mice were divided into two groups COLO-1 and COLO-2 (n=3) were divided into two groups. Tumor was collected once tumor reached a volume of ˜1,000 mm^3. […] Treatments started once tumors reached a volume of ˜200 mm^3. Tumor volume was monitored every 3-4 days by caliper measurements until the cessation of the experiment when tumors reached an ethically unacceptable size or after 18 days of daily treatment (whichever came first). Body weight of mice were monitored during treatment.

[12] = test system: SW480; test: Cell viability (CellTiter-Glo), SW480; format: cell-based, human; conditions: SW480, 72 hrs
Method: as §1

[13] = in vivo; conditions: both, CD1-IGS, mouse, po
Method: MAXIMUM TOLERATED DOSE (MTD) AND IN VIVO TOXICITY STUDIES. […] Mice were monitored daily and body weight was monitored at the indicated days. After 14 days of the first treatment, mice were subject to euthanasia and necropsy (Histology and Comparative Pathology Facility, Albert Einstein College of Medicine) and tissues (e.g. spleen, liver, kidney, lung, heart) were harvested for fixation in 10% buffered formalin (Fisher Scientific) for pathology analysis. […] Blood counts were determined on a Forcyte Veterinary Hematology Analyzer (Oxford Science Inc.). […] Histological evaluation of tissues and necropsy performed by the Histology and Comparative Pathology Facility board-certified veterinary pathologist.

[14] = test system: COLO230; test: Cell viability (CellTiter-Glo), COLO230; format: cell-based, human; conditions: COLO230, 72 hrs
Method: as §1

[15] = test system: OCI-AML3; test: Cell viability (CellTiter-Glo), OCI-AML3; format: cell-based, human; conditions: OCI-AML3, 72 hrs
Method: as §1

[16] = test system: U937; test: Cell viability (CellTiter-Glo), U937; format: cell-based, human; conditions: U937, 72 hrs
Method: as §1

[17] = molecular target: T3, BAX:BCL-XL complexes (Homo sapiens, UniProt Q07812); test: BAX co-immunoprecipitation and immunoblotting; format: cell-based; conditions: 4 hrs treatment
T3 construct: endogenous in cells; host or cells: BxPC-3, SW480, Calu-6
Method: Protein lysates were obtained by cell lysis in 0.2% NP-40 buffer (50 mM Tris-HCL, 150 mM NaCl, 1 mM EDTA, 10% Glycerol, 0.2% NP-40, pH 7.50) Immunoprecipitation was performed in 600 mL of 400 μg of proteins, which was precleared by centrifugation followed by exposure to 12 μL (50% slurry) protein A/G beads (Santa Cruz) at 4° C. for 30 min. […] Samples were then exposed to 20 μL (50% slurry) protein A/G beads (Santa Cruz) at 4° C. for 2 hrs and later centrifuged and washed three times with 0.2% NP-40 buffer and boiled in loading buffer (Life Technologies). […] For visualization of proteins with Odyssey Infrared Imaging System (LI-COR Biosciences) membranes were blocked in Odyssey Blocking Buffer (LI-COR Biosciences). Primary antibodies were incubated overnight at 4° C. in a 1:1,000 dilution. After washes, membranes were incubated with an IRdye800-conjugated goat anti-rabbit IgG or IRdye800-conjugated goat anti-mouse IgG secondary antibodies (LI-COR Biosciences) in a 1:10,000 and 1:20,000 dilution, respectively.
After 2 hr, FBS was supplemented to a final concentration of 10%. […] The supernatants were isolated by centrifugation at 15,000×g for 10 min and the mitochondrial pellets solubilized in NP-40 lysis buffer (50 mM Tris-HCL pH 7.4, 150 mM NaCl, 5 mM MgCl2, 1 Mm EGTA, 10% Glycerol, 0.2% NP-40). […]

[18] = previously determined by Tse et al; cited from earlier work
[19] = test system: Calu-6 BAX KO cells; test: Viability and caspase 3/7 in WT and CRISPR/Cas9 BAX KO Calu-6 cells; format: cell-based, human
Method: as §1
Assays were performed at least in triplicate.

[20] = SU-DHL-5, 72 hrs, read-out: Viability Inhibition- SU- DHL5- IC50
[21] = SU-DHL-5, 72 h, read-out: Viability Inhibition- SU- DHL5- IC50 (μM)
[22] = male, ICR (CD-1), mouse, IV 1 mg/kg, mice plasma, Mean
[23] = male, ICR (CD-1), mouse, PO 3 mg/kg, mice plasma, Mean

T2 sequence (Q07812 whole entry): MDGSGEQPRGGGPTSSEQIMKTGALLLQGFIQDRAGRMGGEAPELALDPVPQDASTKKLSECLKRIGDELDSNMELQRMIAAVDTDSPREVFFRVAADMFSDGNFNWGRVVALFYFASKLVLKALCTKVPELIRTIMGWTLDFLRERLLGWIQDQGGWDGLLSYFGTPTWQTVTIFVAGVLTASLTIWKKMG
BCL-XL, sequence (Q07817 whole entry): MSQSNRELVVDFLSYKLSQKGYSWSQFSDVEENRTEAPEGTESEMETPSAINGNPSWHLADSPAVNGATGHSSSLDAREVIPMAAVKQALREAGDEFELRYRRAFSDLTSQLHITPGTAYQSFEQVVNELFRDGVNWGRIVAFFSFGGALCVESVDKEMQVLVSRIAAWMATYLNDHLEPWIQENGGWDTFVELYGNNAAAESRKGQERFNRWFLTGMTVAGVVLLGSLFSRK
T3 sequence (Q07812 whole entry, one chain of several): as the sequence (Q07812 whole entry) above
BCL-2, sequence (P10415 whole entry): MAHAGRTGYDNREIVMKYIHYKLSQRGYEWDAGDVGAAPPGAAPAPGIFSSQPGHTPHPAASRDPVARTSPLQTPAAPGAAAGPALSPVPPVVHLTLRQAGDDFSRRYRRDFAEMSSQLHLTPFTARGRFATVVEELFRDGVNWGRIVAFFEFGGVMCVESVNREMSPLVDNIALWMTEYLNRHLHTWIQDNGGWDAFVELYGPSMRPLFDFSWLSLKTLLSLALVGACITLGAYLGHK

**Q.** Which results are given for `CN(C)CC[C@H](CSc1ccccc1)Nc1ccc(S(=O)(=O)NC(=O)c2ccc(N3CCN(Cc4ccccc4-c4ccc(Cl)cc4)CC3)cc2)cc1[N+](=O)[O-]` [ABT-737]?
**A.** affinity [1]: < 1 mol/L; affinity [2]: < 1 mol/L; affinity [3]: < 1 mol/L

**Q.** Which IC50 [4, 20] does the source give for `CCOc1ccccc1NN=C1C(=O)N(c2nc(-c3ccccc3)cs2)N=C1C` [BAM7, reference compound] here?
**A.** > 25 µM

**Q.** What does the source list for `Cc1nc(N/N=C2\C(=O)N(c3nc(-c4ccccc4)cs3)N=C2c2ccccc2)sc1C` [BTSA1.2, 4-(2-(4,5-dimethylthiazol-2-yl)hydrazono)-5-phenyl-2-(4-phenyl-thiazol-2-yl)-2,4-dihydro-3H-pyrazol-3-one]?
**A.** IC50 [5]: 109 nM; IC50 [4, 21]: 0.23 µM; CL_obs ([6]; IV 1 mg/kg, mice plasma, Mean): 0.282; VSS_obs ([6]; IV 1 mg/kg, mice plasma, Mean): 555.803; bioavailability ([6]; male, ICR (CD-1), mouse, plasma, 3 mg/kg, oral administration, mice, read-out: oral bioavailability (% F)): ~50%; Cmax ([6]; male, ICR (CD-1), mouse, plasma, 3 mg/kg, oral administration, mice, read-out: peak concentration (Cmax)): ~8 µM; AUC ([6]; male, ICR (CD-1), mouse, plasma, 3 mg/kg, oral administration, mice, read-out: plasma exposure (AUC)): ~100 µM·h; half-life ([6]; male, ICR (CD-1), mouse, plasma, iv, 1 mg/kg, IV 1 mg/kg, mice plasma, Mean, read-out: T1/2 (converted)): 24.6 h; half-life ([6]; male, ICR (CD-1), mouse, plasma, po, 3 mg/kg, PO 3 mg/kg, mice plasma, Mean, read-out: T1/2 (converted)): 14.4 h; half-life ([6]; male, ICR (CD-1), mouse, plasma, po, 3 mg/kg, oral administration, read-out: half-life (T1/2) in mouse plasma (converted)): ~14 h; bioavailability ([6]; male, ICR (CD-1), mouse, plasma, PO 3 mg/kg vs IV 1 mg/kg, mice, read-out: F(%)): 49.2%; AUC(0-t) [6, 22]: 31900 ng·h/mL; Tmax [6, 22]: 2 h; AUC(0-inf) [6, 22]: 67700 ng·h/mL; Cmax ([6]; male, ICR (CD-1), mouse, IV 1 mg/kg, mice plasma, Mean, read-out: Cmax): 2670 ng/mL; MRT inf [6, 22]: 35.7 h; AUC(0-t) [6, 23]: 47000 ng·h/mL; Tmax [6, 23]: 3.33 h; AUC(0-inf) [6, 23]: 70000 ng·h/mL; Cmax ([6]; male, ICR (CD-1), mouse, PO 3 mg/kg, mice plasma, Mean, read-out: Cmax): 3690 ng/mL; MRT inf [6, 23]: 21.7 h; half-life (T1/2) in mouse plasma ([6]; oral administration): ~15 h; IC50 [7]: < 3000 nM; IC50 ([8]; 72 h): > 10000 nM; body weight, blood counts and organs [9]: body weight and blood counts were measured in normal levels but reduction in white blood cells and lymphocytes counts was observed after repeated dosing; tumor growth [10]: no significant efficacy in reducing tumor growth; tumor growth [11]: some PDX showed to respond to BTSA1.2 only treatment as their tumor growth was suppressed; single agent effect on cell viability [12]: resistant; necropsy finding (200 mg/kg BTSA1, 300 mg/kg BTSA1.2, oral gavage daily): die by kidney failure after 3 days of treatment; body weights and organ histology (BTSA1.2 up to 200 mg/kg oral): constant body weights and organs examined were between normal histologic limits; dose limiting toxicity (DLT) (oral daily for 5 days): 300 mg/kg; MTD [13]: 200 mg/kg

**Q.** Which IC50 [4, 21] does the source give for `O=C1/C(=N\Nc2nccs2)C(c2ccccc2)=NN1c1nc(-c2ccccc2)cs1` [BTSA1] here?
**A.** 0.4 µM

**Q.** For `CC1=NN(c2nc(-c3ccccc3)cs2)C(=O)C1=NNc1nccs1` [Compound 3], which IC50 [5] is on record?
**A.** 2380 nM

**Q.** What about the IC50 [4, 20] of the same molecule?
**A.** > 25 µM

**Q.** For `O=C(O)c1cccc(NN=C2C(=O)N(c3nc(-c4ccccc4)cs3)N=C2c2ccccc2)c1` [Compound 5], which IC50 [5] is on record?
**A.** 497 nM

**Q.** And the IC50 [4, 21]?
**A.** 2.8 µM

**Q.** Which “single agent effect on cell viability” value [12] does the source give for `Cc1c(-c2ccc(N3CCc4cccc(C(=O)Nc5nc6ccccc6s5)c4C3)nc2C(=O)O)cnn1CC12CC3CC(CC(C3)C1)C2` [Compound A-1331852] here?
**A.** potent

**Q.** And the “single agent effect on cell viability” value [14]?
**A.** not effective

**Q.** And the “single agent effect on cell viability” value [15]?
**A.** moderately potent as single agent

**Q.** And the “single agent effect on cell viability” value [16]?
**A.** moderately potent as single agent

**Q.** With `CC1(C)CCC(c2ccc(Cl)cc2)=C(CN2CCN(c3ccc(C(=O)NS(=O)(=O)c4ccc(N[C@H](CCN5CCOCC5)CSc5ccccc5)c(S(=O)(=O)C(F)(F)F)c4)cc3)CC2)C1` [Navitoclax, 4-(4-{[2-(4-Chlorophenyl)-5,5-dimethyl-1-cyclohexen-1-yl]methyl}-1-pipera-zinyl)-N-[(4-{[(2R)-4-(4-morpholinyl)-1-(phenylsulfanyl)-2-butanyl]amino}-3-[(trifluoromethyl)sulfonyl]phenyl)sulfonyl]benzamide, reference compound] as the molecule, how does the IC50 ([8]; 72 hrs, solid tumor cell lines) read?
**A.** > 10000 nM

**Q.** What about the “body weight, blood counts and organs” value [9] of the same molecule?
**A.** lymphocyte, white blood cell and platelet counts reached levels below normal counts upon a single treatment

**Q.** What about the tumor growth [10] of the same molecule?
**A.** no significant efficacy in reducing tumor growth

**Q.** And the “single agent effect on cell viability” value [12]?
**A.** resistant

**Q.** What about the “BAX:BCL-XL complexes by BAX co-immunoprecipitation” value [17] of the same molecule?
**A.** disrupted BAX:BCL-XL complexes

**Q.** What about the MTD [18] of the same molecule?
**A.** 100 mg/kg/po

**Q.** Which “sensitivity of Calu-6 cells lacking BAX expression” value [19] does the source give for `CN[C@@H]1C[C@H]2O[C@@](C)([C@@H]1OC)n1c3ccccc3c3c4c(c5c6ccccc6n2c5c31)C(=O)NC4` [staurosporine] here?
**A.** still sensitive
